Assay results published in patent US20070280946A1, “Antibody to 5' -Deoxy-5' - Methylthioadenosine And Uses Thereof” (priority 2004, published 2007).

How the values were obtained:
[1] = target: T1, spermidine synthase (Homo sapiens, UniProt P19623); assay: Activity measurement of spermidine synthase by ELISA; assay type: biochemical; conditions: measured by ELISA; read-out: IC50 value, inhibition of MTA production by SPDS
T1 construct: Human SPDS gene was amplified by PCR, inserted into an entry vector pENTR11; made in house; host or cells: HEK293 cells (transient transfection, Lipofectamine 2000)
T1 sequence (P19623 1-302): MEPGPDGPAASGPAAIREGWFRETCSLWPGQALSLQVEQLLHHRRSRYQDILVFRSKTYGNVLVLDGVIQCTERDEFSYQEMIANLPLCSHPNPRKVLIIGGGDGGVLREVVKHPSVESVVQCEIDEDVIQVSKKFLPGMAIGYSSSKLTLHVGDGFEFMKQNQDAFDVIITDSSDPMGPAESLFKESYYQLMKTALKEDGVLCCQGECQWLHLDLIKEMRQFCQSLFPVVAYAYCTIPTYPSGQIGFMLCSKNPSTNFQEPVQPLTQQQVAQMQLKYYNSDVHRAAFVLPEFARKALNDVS
Description: The amount of MTA in each well was calculated from the competitive curve described above, and the produced amount of MTA per an enzyme amount and a reaction time was determined to be defined as an enzyme activity. It was confirmed that a production amount of MTA was increased depending on a concentration of spermidine synthase and a reaction time. […] Pharma., 1991.). […] By detecting a production amount of MTA according to the present method, an inhibition effect of the test substance was measured.

[2] = target: T1, spermidine synthase; assay: Activity measurement of spermidine synthase by HTRF; assay type: biochemical; conditions: measured by HTRF; read-out: IC50 value, inhibition of MTA production by SPDS
Description: 10 μL of spermidine synthase diluted with buffer C was added into 384-well assay plate (black, Corning). Then, to the plate was added 10 μl of the above substrate mixture, and reaction was conducted at room temperature. […] Then, each well was added with 20 μl of europium cryptate-labeled anti-MTA-7H8 antibody made to 288 ng/ml with buffer D, and the mixture was reacted for 16 hours at room temperature. Fluorescence of each well was measured by Rubyster (BMG Labtechnologis). An amount of MTA in each well was calculated from a standard curve, and converted to an amount of MTA per an enzyme amount and a reaction time, which was an enzyme activity. In FIG. 4, open circles represent reactivity to dcSAM and filled circles represent reactivity to MTA. […] It was confirmed that a production amount of MTA was increased depending on a concentration of spermidine synthase and a reaction time. […] By detecting a production amount of MTA according to the present method, an inhibition effect of the test substance was measured.

[3] = test system: spermidine synthase; conditions: Shirahata et al., Biochem. Pharma., 1991; read-out: IC50 value in a publication; cited from earlier work
[4] = test system: interaction of proteoglycan units with collagen; conditions: column of Sepharose 4B-collagen loaded with proteoglycan subunits; cited from earlier work
[5] = target: T2, alkaline phosphatase produced from cartilage (Homo sapiens, UniProt P05186); conditions: cited from earlier work
T2 sequence (P05186 18-501): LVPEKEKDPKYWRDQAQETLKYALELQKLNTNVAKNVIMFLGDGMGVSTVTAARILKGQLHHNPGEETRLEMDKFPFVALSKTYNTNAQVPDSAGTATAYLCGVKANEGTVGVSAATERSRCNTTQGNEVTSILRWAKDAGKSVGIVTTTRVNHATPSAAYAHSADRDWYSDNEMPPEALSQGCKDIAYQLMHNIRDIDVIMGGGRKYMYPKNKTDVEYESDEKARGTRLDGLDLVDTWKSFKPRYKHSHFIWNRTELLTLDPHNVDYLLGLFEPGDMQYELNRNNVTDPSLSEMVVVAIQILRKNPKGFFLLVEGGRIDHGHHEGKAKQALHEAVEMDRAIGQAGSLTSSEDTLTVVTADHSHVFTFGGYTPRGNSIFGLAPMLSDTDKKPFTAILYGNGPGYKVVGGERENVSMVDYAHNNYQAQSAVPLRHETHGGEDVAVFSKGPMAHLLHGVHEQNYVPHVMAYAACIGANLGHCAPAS

| SMILES | IC50 [1] [nM] | IC50 [2] [nM] | IC50 [3] [nM] | capacity of displacing proteoglycan subunits from the column [4] | proteoglycan subunits removed from the column [4] | effect on activity of alkaline phosphatase produced from cartilage [5] |
| --- | --- | --- | --- | --- | --- | --- |
| CC1CCC(N)CC1 (stereo not drawn) [4-methylcyclohexylamine] | 1000 | 1100 | 1700 | – | – | – |
| NCCCCN [putrescine] | – | – | – | without effect | – | – |
| NCCCCNCCCN [spermidine] | – | – | – | showed the capacity of displacing proteoglycan subunits | about 90% | increased the activity |
| NCCCNCCCCNCCCN [spermine] | – | – | – | without effect | – | increased the activity |
